Data from US12655116B2, “Substituted isophthalic acid diamides” (Bayer Aktiengesellschaft, priority 2020, dated 2026).

How the values were obtained:
AMARE [1] = assay: Post-emergence herbicidal action against AMARE; type: in vivo, Amaranthus retroflexus; conditions: Amaranthus retroflexus, 504 h, 20 g/ha, visual assessment about 3 weeks after treatment, 100% = plants have died, 0% = like control plants
Summary of the method: (§1)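 Spray, one-leaf stage: WP or EC compound in water, 600–800 l/ha, 0.2% wetting agent. Plants held about 3 weeks in the greenhouse, then visually rated in percent of kill compared with untreated controls.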

SETVI [2] = assay: Pre-emergence herbicidal action against SETVI; type: in vivo, Setaria viridis; conditions: Setaria viridis, 504 h; for pest or weed control at 80 g/ha: dosage 80 g/ha
Summary of the method: (§2)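 Pre-emergence soil-surface spray of formulated compound (WP or EC; 600 to 800 l/ha; 0.2% wetting agent) over seeds sown in sandy loam. After 3 weeks under greenhouse conditions, damage is estimated visually in percent against untreated plants.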

ALOMY [3] = assay: Post-emergence herbicidal action against ALOMY; type: in vivo, Alopecurus myosuroides; conditions: Alopecurus myosuroides, 504 h, visual assessment about 3 weeks after treatment vs untreated controls; for pest or weed control at 20 g/ha: dosage 20 g/ha
Summary of the method: as §1

LOLRI = assay: Pre-emergence herbicidal action against LOLRI; type: in vivo, Lolium rigidum; conditions: Lolium rigidum, 504 h, 80 g/ha
Summary of the method: as §2

SETVI [4] = assay: Post-emergence herbicidal action against SETVI; type: in vivo, Setaria viridis; conditions: Setaria viridis, 504 h; for pest or weed control at 5 g/ha: dosage 5 g/ha; for pest or weed control at 20 g/ha: dosage 20 g/ha
Summary of the method: as §1

AVEFA = assay: Pre-emergence herbicidal action against AVEFA; type: in vivo, Avena fatua; conditions: Avena fatua, 504 h; 80 g/ha, pre-emergence
Summary of the method: as §2

VIOTR [5] = assay: Post-emergence herbicidal action against VIOTR; type: in vivo, Viola tricolor; conditions: Viola tricolor, 504 h, 20 g/ha
Summary of the method: as §1

ABUTH [6] = assay: Post-emergence herbicidal action against ABUTH; type: in vivo, Abutilon theophrasti; conditions: Abutilon theophrasti, 504 h, visual assessment about 3 weeks after treatment vs untreated controls; for pest or weed control at 20 g/ha: dosage 20 g/ha
Summary of the method: as §1

POLCO = assay: Pre-emergence herbicidal action against POLCO; type: in vivo, Polygonum convolvulus; conditions: Fallopia convolvulus, 504 h, dosage 80 g/ha
Summary of the method: as §2

VIOTR [7] = assay: Pre-emergence herbicidal action against VIOTR; type: in vivo, Viola tricolor; conditions: Viola tricolor, 504 h; for pest or weed control at 20 g/ha: dosage 20 g/ha; for pest or weed control at 80 g/ha: dosage 80 g/ha
Summary of the method: as §2

ABUTH [8] = assay: Pre-emergence herbicidal action against ABUTH; type: in vivo, Abutilon theophrasti; conditions: Abutilon theophrasti, 504 h; for pest or weed control at 80 g/ha: scored visually after 3 weeks vs untreated controls (100% = plants have died, 0% = like control plants)
Summary of the method: as §2

MATIN = assay: Pre-emergence herbicidal action against MATIN; type: in vivo, Matricaria inodora; conditions: Tripleurospermum inodorum, 504 h; for pest or weed control at 80 g/ha: dosage 80 g/ha
Summary of the method: as §2

ALOMY [9] = assay: Pre-emergence herbicidal action against ALOMY; type: in vivo, Alopecurus myosuroides; conditions: Alopecurus myosuroides, 504 h, pre-emergence; for pest or weed control at 80 g/ha: scored visually after 3 weeks vs untreated controls (100% = plants have died, 0% = like control plants); for pest or weed control at 20 g/ha: scored visually after 3 weeks, 100% = plants have died, 0% = like control plants
Summary of the method: as §2

AMARE [10] = assay: Pre-emergence herbicidal action against AMARE; type: in vivo, Amaranthus retroflexus; conditions: Amaranthus retroflexus, 504 h, scored visually after 3 weeks vs untreated controls, 100% = plants have died, 0% = like control plants
Summary of the method: as §2

ECHCG [11] = assay: Pre-emergence herbicidal action against ECHCG; type: in vivo, Echinochloa crus-galli; conditions: Echinochloa crus-galli, 504 h, 80 g/ha
Summary of the method: as §2

DIGSA [12] = assay: Pre-emergence herbicidal action against DIGSA; type: in vivo, Digitaria sanguinalis; conditions: Digitaria sanguinalis, 504 h
Summary of the method: as §2

DIGSA [13] = assay: Post-emergence herbicidal action against DIGSA; type: in vivo, Digitaria sanguinalis; conditions: Digitaria sanguinalis, 504 h
Summary of the method: as §1

PHBPU [14] = assay: Post-emergence herbicidal action against PHBPU; type: in vivo, Pharbitis purpurea; conditions: Ipomoea purpurea, 504 h
Summary of the method: as §1

PHBPU [15] = assay: Pre-emergence herbicidal action against PHBPU; type: in vivo, Pharbitis purpurea; conditions: Ipomoea purpurea, 504 h, dosage 80 g/ha
Summary of the method: as §2

ECHCG [16] = assay: Post-emergence herbicidal action against ECHCG; type: in vivo, Echinochloa crus-galli; conditions: Echinochloa crus-galli, 504 h
Summary of the method: as §1

VERPE [17] = assay: Post-emergence herbicidal action against VERPE; type: in vivo, Veronica persica; conditions: Veronica persica, 504 h, 20 g/ha
Summary of the method: as §1

VERPE [18] = assay: Pre-emergence herbicidal action against VERPE; type: in vivo, Veronica persica; conditions: Veronica persica, 504 h, dosage 80 g/ha
Summary of the method: as §2

## CCn1nnnc1NC(=O)c1ccc(Br)c(C(=O)NC2CC2)c1Br [Example 2-343]
AMARE [1]
  pest or weed control at 20 g/ha: 100%
SETVI [2]
  pest or weed control at 80 g/ha: 100%
ALOMY [3]; dosage 5 g/ha
  pest or weed control at 5 g/ha: 80%
ALOMY [3]
  pest or weed control at 20 g/ha: 100%
LOLRI
  pest or weed control at 80 g/ha: 90%
SETVI [4]
  pest or weed control at 5 g/ha: 90%
  pest or weed control at 20 g/ha: 90%
AVEFA
  pest or weed control at 80 g/ha: 100%
VIOTR [5]
  pest or weed control at 20 g/ha: 90%
ABUTH [6]
  pest or weed control at 20 g/ha: 80%
POLCO
  pest or weed control at 80 g/ha: 90%
VIOTR [7]
  pest or weed control at 20 g/ha: 90%
  pest or weed control at 80 g/ha: 100%
ABUTH [8]
  pest or weed control at 80 g/ha: 100%
MATIN; dosage 20 g/ha
  pest or weed control at 20 g/ha: 80%
MATIN
  pest or weed control at 80 g/ha: 100%
ALOMY [9]
  pest or weed control at 80 g/ha: 90%
  pest or weed control at 20 g/ha: 80%
AMARE [10]
  pest or weed control at 20 g/ha: 100%
  pest or weed control at 80 g/ha: 100%
ECHCG [11]
  pest or weed control at 80 g/ha: 90%

## Cc1nnc(NC(=O)c2ccc(C(F)(F)F)c(C(=O)NC(C)C)c2C)o1 [Example 6-255]
AMARE [1]
  pest or weed control at 20 g/ha: 100%
SETVI [2]; dosage 20 g/ha
  pest or weed control at 20 g/ha: 100%
SETVI [2]
  pest or weed control at 80 g/ha: 100%
ALOMY [3]
  pest or weed control at 20 g/ha: 90%
DIGSA [12]; dosage 20 g/ha
  pest or weed control at 20 g/ha: 100%
DIGSA [12]; dosage 80 g/ha
  pest or weed control at 80 g/ha: 100%
LOLRI
  pest or weed control at 80 g/ha: 80%
DIGSA [13]; 5 g/ha
  pest or weed control at 5 g/ha: 90%
DIGSA [13]; 20 g/ha
  pest or weed control at 20 g/ha: 100%
SETVI [4]
  pest or weed control at 5 g/ha: 80%
  pest or weed control at 20 g/ha: 90%
AVEFA
  pest or weed control at 80 g/ha: 80%
PHBPU [14]; dosage 5 g/ha
  pest or weed control at 5 g/ha: 90%
PHBPU [14]; dosage 20 g/ha
  pest or weed control at 20 g/ha: 90%
PHBPU [15]
  pest or weed control at 80 g/ha: 90%
ABUTH [6]; dosage 5 g/ha
  pest or weed control at 5 g/ha: 90%
ABUTH [6]
  pest or weed control at 20 g/ha: 90%
ECHCG [16]; dosage 5 g/ha
  pest or weed control at 5 g/ha: 90%
ECHCG [16]; dosage 20 g/ha
  pest or weed control at 20 g/ha: 100%
VERPE [17]
  pest or weed control at 20 g/ha: 80%
VERPE [18]
  pest or weed control at 80 g/ha: 90%
VIOTR [7]
  pest or weed control at 20 g/ha: 80%
  pest or weed control at 80 g/ha: 90%
ABUTH [8]
  pest or weed control at 80 g/ha: 100%
ABUTH [8]; dosage 20 g/ha, scored visually after 3 weeks vs untreated controls, 100% = plants have died, 0% = like control plants, read-out: Pre-emergence action against ABUTH (herbicidal activity in percent)
  pest or weed control at 20 g/ha: 100%
MATIN
  pest or weed control at 80 g/ha: 100%
ALOMY [9]
  pest or weed control at 80 g/ha: 100%
  pest or weed control at 20 g/ha: 90%
AMARE [10]
  pest or weed control at 20 g/ha: 100%
  pest or weed control at 80 g/ha: 100%
ECHCG [11]
  pest or weed control at 80 g/ha: 100%
